Assays:
H influenzae 33929 = test: MIC, H influenzae 33929; assay type: cell-based, Haemophilus influenzae; details: Table 6, related compounds of US 6878691
Protocol: (§1) Susceptibility tests can be used to quantitatively measure the in vitro activity of an antimicrobial agent against a given bacterial isolate. Compounds are tested for in vitro antibacterial activity by a micro-dilution method. Minimal Inhibitory Concentration (MIC) is determined in 96 well microtiter plates utilizing the appropriate broth medium for the observed bacterial isolates. Antimicrobial agents are serially diluted (2-fold) in DMSO to produce a concentration range from about 64 μg/ml to about 0.03 μg/ml. The diluted compounds (2 μl/well) are then transferred into sterile, uninoculated medium (0.2 mL) by use of a 96 fixed tip-pipetting station. The inoculum for each bacterial strain is standardized to approximately 5×10^5 CFU/mL by optical comparison to a 0.5 McFarland turbidity standard. The plates are inoculated with 10 μl/well of adjusted bacterial inoculum. The 96 well plates are covered and incubated at 35±2° C. for 24 hours in ambient air environment. Following incubation, plate wells are visually examined by Optical Density measurement for the presence of growth (turbidity). The lowest concentration of an antimicrobial agent at which no visible growth occurs is defined as the MIC.
(§2) All in vitro testing follows the guidelines described in the Approved Standards M7-A7 protocol, published by the Clinical Laboratory Standards Institute (CLSI).

H influenzae 49247 = test: MIC, H influenzae 49247; assay type: cell-based, Haemophilus influenzae; details: Table 6, related compounds of US 6878691
Protocol: as §1, §2

MRSA 33591 = test: MIC, MRSA 33591; assay type: cell-based, Staphylococcus aureus; details: Table 6, related compounds of US 6878691
Protocol: as §1, §2

H. influenzae 3643 [1] = test: Rat lung infection model (RLI), H. influenzae 3643; assay type: in vivo; details: Haemophilus influenzae, read-out: ED50 (2Log Red for RLI)
H. influenzae 1435 [2] = test: Rat lung infection model (RLI), H. influenzae 1435; assay type: in vivo; details: Haemophilus influenzae, read-out: ED50 (2Log Red for RLI)
H. influenzae S1280 [3] = test: MIC, H. influenzae S1280; assay type: cell-based, Haemophilus influenzae; set-up: unit not given beside the values
Protocol: as §1, §2

S. pneumoniae 7701 [4] = test: Mouse protection test model (MPT), S. pneumoniae 7701; assay type: in vivo; details: Streptococcus pneumoniae
S. pneumoniae 7701 [5] = test: MIC, S. pneumoniae 7701; assay type: cell-based
Protocol: as §1, §2

H. influenzae 1435 [6] = test: MIC, H. influenzae 1435; assay type: cell-based, Haemophilus influenzae; set-up: unit not given beside the values
Protocol: as §1, §2

S. aureus Smith [7] = test: Systemic mouse protection model (MPT), S. aureus Smith; assay type: in vivo; details: Staphylococcus aureus, MPT
H. influenzae 3643 [8] = test: MIC, H. influenzae 3643; assay type: cell-based, Haemophilus influenzae; set-up: unit not given beside the values
Protocol: as §1, §2

H. influenzae S1280 [9] = test: Rat lung infection model (RLI), H. influenzae S1280; assay type: in vivo; details: Haemophilus influenzae, read-out: ED50 (2Log Red for RLI)
S. aureus Smith [10] = test: MIC, S. aureus Smith; assay type: cell-based, Staphylococcus aureus; details: table of animal models of infection
Protocol: as §1, §2

SMILES	H. influenzae 33929 (microbiological data) (H influenzae 33929)	H. influenzae 49247 (microbiological data) (H influenzae 49247)	MRSA 33591 (microbiological data) (MRSA 33591)	other results
CCC1OC(=O)C(C)(F)C(=O)C(C)C(OC2OC(C)CC(N(C)C)C2O)C2(C)CC(C)C(=NC(C)=O)C(C)C(OCC(=NOCc3ccc(-c4cccc(N)n4)s3)CO2)C1(C)O (stereo not shown) [Example 173 in US 6878691]	4	4	4	
CCC1OC(=O)C(C)C(=O)C(C)C(OC2OC(C)CC(N(C)C)C2O)C2(C)CC(C)C(=NC(C)=O)C(C)C(OCC(=NOCc3ccc(-c4ncccn4)cc3)CO2)C1(C)O (stereo not shown) [Example 193 in US 6878691]	8	8	64	
CCNC(=O)c1cccc(-c2cc(CON=C3COC4C(C)C(=NC(C)=O)C(C)CC(C)(OC3)C(OC3OC(C)CC(N(C)C)C3O)C(C)C(=O)C(C)C(=O)OC(CC)C4(C)O)on2)n1 (stereo not shown) [Example 195 in US 6878691]	32	32	>64	
CCC1OC(=O)C(C)C(=O)C(C)C(OC2OC(C)CC(N(C)C)C2O)C2(C)CC(C)C(=NC(C)=O)C(C)C(OCC(=NOCc3ccc(-c4cccs4)nc3)CO2)C1(C)O (stereo not shown) [Example 205 in US 6878691]	4	8	>64	
CCC1OC(=O)C(C)C(=O)C(C)C(OC2OC(C)CC(N(C)C)C2O)C2(C)CC(C)C(=NC(C)=O)C(C)C(OCC(=NOCc3ccc(-c4nccs4)nc3)CO2)C1(C)O (stereo not shown) [Example 212 in US 6878691]	4	8	64	
CCC1OC(=O)C(C)(F)C(=O)C(C)C(OC2OC(C)CC(N(C)C)C2O)C2(C)CC(C)C(=NC(C)=O)C(C)C(OCC(=NOCc3ccc(-n4cccn4)nc3)CO2)C1(C)O (stereo not shown) [Example 214 in US 6878691]	4	8	64	
CCC1OC(=O)C(C)(F)C(=O)C(C)C(OC2OC(C)CC(N(C)C)C2O)C2(C)CC(C)C(=NC(C)=O)C(C)C(OCC(=NOCc3ccc(-c4csnn4)cc3)CO2)C1(C)O (stereo not shown) [Example 219 in US 6878691]	4	4	32	
CCC1OC(=O)C(C)C(=O)C(C)C(OC2OC(C)CC(N(C)C)C2O)C2(C)CC(C)C(=NC(C)=O)C(C)C(OCC(=NOCc3ccc(-c4cccc(N)n4)nc3)CO2)C1(C)O (stereo not shown) [Example 227 in US 6878691]	4	4	32	
CCC1OC(=O)C(C)C(=O)C(C)C(OC2OC(C)CC(N(C)C)C2O)C2(C)CC(C)C(=NC(C)=O)C(C)C(OCC(=NOCc3ccc(-c4nnc(N)s4)nc3)CO2)C1(C)O (stereo not shown) [Example 234 in US 6878691]	4	4	>64	
CCC1OC(=O)C(C)C(=O)C(C)C(OC2OC(C)CC(N(C)C)C2O)C2(C)CC(C)C(=NC(C)=O)C(C)C(OCC(=NOCc3cnc(-n4cccn4)c(F)c3)CO2)C1(C)O (stereo not shown) [Example 259 in US 6878691]	8	4	>64	
CC[C@H]1OC(=O)[C@H](C)C(=O)[C@H](C)[C@@H](O[C@@H]2O[C@H](C)C[C@H](N(C)C)[C@H]2O)[C@](C)(OC)C[C@@H](C)C(=O)[C@H](C)[C@H]2N(CCCCn3cnc(-c4cccnc4)c3)C(=O)O[C@]12C [Telithromycin, reference compound]				ED50 (H. influenzae 3643 [1]): 78 mg/kg; ED50 (H. influenzae 1435 [2]): 49 mg/kg; MIC (H. influenzae S1280 [3]): 2; ED50 (S. pneumoniae 7701 [4]): 10 mg/kg; MIC (S. pneumoniae 7701 [5]): 0.25; MIC (H. influenzae 1435 [6]): 2; ED50 (S. aureus Smith [7]): 11 mg/kg; MIC (H. influenzae 3643 [8]): 4; ED50 (H. influenzae S1280 [9]): 56 mg/kg; MIC (S. aureus Smith [10]): 0.13
